Test results from patent US20240140938A1, “PREPARATION OF TETRAHYDROINDAZOLE DERIVATIVES AS NOVEL DIACYLGLYCERIDE O-ACYLTRANSFERASE 2 INHIBITORS” (MERCK SHARP & DOHME LLC, priority 2020, published 2024).

Target: human DGAT2 (hDGAT2) (Homo sapiens (Human), UniProt Q96PD7)
Assay: DGAT2 Enzymatic Activity Assay
Format: biochemical
Details: hDGAT2 Sf-9 membrane prep; 13C18-triolein product by LC/MS/MS; 25 μM diolein, 5 μM 13C oleoyl-CoA
Procedure, shortened: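 Enzyme source was membrane fractions from Sf-9 cells infected with untagged hDGAT2 baculovirus. Reactions ran at room temperature, and product 13C18-triolein was quantified by LC/MS/MS against a 13C21-triolein internal standard. % inhibition was normalised to high and low controls, and IC50 derived from it.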

human DGAT2 (hDGAT2), sequence (Q96PD7 whole entry): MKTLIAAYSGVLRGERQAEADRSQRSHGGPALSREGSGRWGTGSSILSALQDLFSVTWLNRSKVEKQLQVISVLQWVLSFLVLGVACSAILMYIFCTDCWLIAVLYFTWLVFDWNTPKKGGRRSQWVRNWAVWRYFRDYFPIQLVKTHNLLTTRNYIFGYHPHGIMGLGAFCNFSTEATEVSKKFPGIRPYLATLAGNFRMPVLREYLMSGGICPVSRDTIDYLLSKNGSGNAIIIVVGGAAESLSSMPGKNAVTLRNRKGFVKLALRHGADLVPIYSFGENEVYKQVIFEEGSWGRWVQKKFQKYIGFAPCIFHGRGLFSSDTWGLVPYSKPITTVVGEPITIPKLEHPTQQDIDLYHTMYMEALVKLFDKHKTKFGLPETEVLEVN

IC50 | Structure (SMILES)
7.92 nM | CC(C)n1nc(-c2cc(OC(F)F)ccc2Cl)c2c1C[C@H](C(=O)NC1(C)CS(=O)(=O)C1)CC2 [Example 84, (R)-3-(2-chloro-5-(difluoromethoxy)phenyl)-1-isopropyl-N-(3-methyl-1,1-dioxidothietan-3-yl)-4,5,6,7-tetrahydro-1H-indazole-6-carboxamide]
15.6 nM | CC(C)n1nc(-c2cc(OC3CC3)ccc2F)c2c1C[C@H](C(=O)NC1(C)CS(=O)(=O)C1)CC2 [Example 85, (R)-3-(5-cyclopropoxy-2-fluorophenyl)-1-isopropyl-N-(3-methyl-1,1-dioxidothietan-3-yl)-4,5,6,7-tetrahydro-1H-indazole-6-carboxamide]
170 nM | Cc1ncc(OC(F)F)cc1-c1nn(C(C)C)c2c1CC[C@@H](C(=O)NC1(C)CS(=O)(=O)C1)C2 [Example 86, (R)-3-(5-(difluoromethoxy)-2-methylpyridin-3-yl)-1-isopropyl-N-(3-methyl-1,1-dioxidothietan-3-yl)-4,5,6,7-tetrahydro-1H-indazole-6-carboxamide]
3.6 nM | CCOc1cc(F)c(F)c(-c2nn(C(C)C)c3c2CC[C@@H](C(=O)NC2(C)CS(=O)(=O)C2)C3)c1 [Example 87, (R)-3-(5-ethoxy-2,3-difluorophenyl)-1-isopropyl-N-(3-methyl-1,1-dioxidothietan-3-yl)-4,5,6,7-tetrahydro-1H-indazole-6-carboxamide]
275 nM | CC(C)n1nc(-c2cc(OC(F)(F)F)cnc2Cl)c2c1C[C@H](C(=O)NC1(C)CS(=O)(=O)C1)CC2 [Example 88, (R)-3-(2-chloro-5-(trifluoromethoxy)pyridin-3-yl)-1-isopropyl-N-(3-methyl-1,1-dioxidothietan-3-yl)-4,5,6,7-tetrahydro-1H-indazole-6-carboxamide]
158 nM | CCc1ccc(F)c(-c2nn(C(C)C)c3c2CC[C@@H](C(=O)NC2(C)CS(=O)(=O)C2)C3)c1 [Example 100, (R)-3-(5-ethyl-2-fluorophenyl)-1-isopropyl-N-(3-methyl-1,1-dioxidothietan-3-yl)-4,5,6,7-tetrahydro-1H-indazole-6-carboxamide]
> 10000 nM | CC(C)n1nc(-c2cc(C#N)ccc2F)c2c1C[C@H](C(=O)NC1(C)CS(=O)(=O)C1)CC2 [Example 101, (R)-3-(5-cyano-2-fluorophenyl)-1-isopropyl-N-(3-methyl-1,1-dioxidothietan-3-yl)-4,5,6,7-tetrahydro-1H-indazole-6-carboxamide]

Continued, molecule first:

Structure (SMILES) | IC50
CC(C)n1nc(-c2cc(C3CC3)ccc2F)c2c1C[C@H](C(=O)NC1(C)CS(=O)(=O)C1)CC2 [Example 83, (R)-3-(5-cyclopropyl-2-fluorophenyl)-1-isopropyl-N-(3-methyl-1,1-dioxidothietan-3-yl)-4,5,6,7-tetrahydro-1H-indazole-6-carboxamide] | 46 nM
Cc1ncc(OC(F)F)cc1-c1nn(C(C)C)c2c1CC[C@@H](C(=O)NC1(C)CC(F)(F)C1)C2 [Example 89, (R)-N-(3,3-difluoro-1-methylcyclobutyl)-3-(5-(difluoromethoxy)-2-methylpyridin-3-yl)-1-isopropyl-4,5,6,7-tetrahydro-1H-indazole-6-carboxamide] | 318 nM
CC(C)n1nc(-c2cccc(C3(C(F)(F)F)CC3)c2)c2c1C[C@H](C(=O)NC1(C)CS(=O)(=O)C1)CC2 [Example 90, (R)-1-isopropyl-N-(3-methyl-1,1-dioxidothietan-3-yl)-3-(3-(1-(trifluoromethyl)cyclopropyl)phenyl)-4,5,6,7-tetrahydro-1H-indazole-6-carboxamide] | > 10000 nM
CC(C)n1nc(-c2cccc(C3(C#N)CC3)c2)c2c1C[C@H](C(=O)NC1(C)CS(=O)(=O)C1)CC2 [Example 91, (R)-3-(3-(1-cyanocyclopropyl)phenyl)-1-isopropyl-N-(3-methyl-1,1-dioxidothietan-3-yl)-4,5,6,7-tetrahydro-1H-indazole-6-carboxamide] | > 10000 nM
CC(C)n1nc(-c2cc(C(C)(F)F)ncc2F)c2c1C[C@H](C(=O)NC1(C)CCS(=O)(=O)CC1)CC2 [Example 92, (R)-3-(2-(1,1-difluoroethyl)-5-fluoropyridin-4-yl)-1-isopropyl-N-(4-methyl-1,1-dioxidotetrahydro-2H-thiopyran-4-yl)-4,5,6,7-tetrahydro-1H-indazole-6-carboxamide] | 1210 nM
Cc1nc2c(-c3nn(C(C)C)c4c3CC[C@@H](C(=O)NC3(C)CS(=O)(=O)C3)C4)cccc2o1 [Example 93, (R)-1-isopropyl-N-(3-methyl-1,1-dioxidothietan-3-yl)-3-(2-methylbenzo[d]oxazol-4-yl)-4,5,6,7-tetrahydro-1H-indazole-6-carboxamide] | > 10000 nM
CC(C)n1nc(-c2cccc(CC#N)c2)c2c1C[C@H](C(=O)NC1(C)CS(=O)(=O)C1)CC2 [Example 94, (R)-3-(3-(cyanomethyl)phenyl)-1-isopropyl-N-(3-methyl-1,1-dioxidothietan-3-yl)-4,5,6,7-tetrahydro-1H-indazole-6-carboxamide] | > 10000 nM
CC(C)n1nc(-c2cncc(C(=O)NC(C)(C)C)c2)c2c1C[C@H](C(=O)NC1(C)CS(=O)(=O)C1)CC2 [Example 95, (R)-3-(5-(tert-butylcarbamoyl)pyridin-3-yl)-1-isopropyl-N-(3-methyl-1,1-dioxidothietan-3-yl)-4,5,6,7-tetrahydro-1H-indazole-6-carboxamide] | > 10000 nM
CC(C)n1nc(-c2cccc(OCC#N)c2)c2c1C[C@H](C(=O)NC1(C)CS(=O)(=O)C1)CC2 [Example 96, (R)-3-(3-(cyanomethoxy)phenyl)-1-isopropyl-N-(3-methyl-1,1-dioxidothietan-3-yl)-4,5,6,7-tetrahydro-1H-indazole-6-carboxamide] | > 10000 nM
CC(C)n1nc(-c2cccc(S(C)(=O)=O)c2)c2c1C[C@H](C(=O)NC1(C)CS(=O)(=O)C1)CC2 [Example 98, (R)-1-isopropyl-N-(3-methyl-1,1-dioxidothietan-3-yl)-3-(3-(methylsulfonyl)phenyl)-4,5,6,7-tetrahydro-1H-indazole-6-carboxamide] | > 10000 nM
CCNS(=O)(=O)c1cccc(-c2nn(C(C)C)c3c2CC[C@@H](C(=O)NC2(C)CS(=O)(=O)C2)C3)c1 [Example 99, (R)-3-(3-(N-ethylsulfamoyl)phenyl)-1-isopropyl-N-(3-methyl-1,1-dioxidothietan-3-yl)-4,5,6,7-tetrahydro-1H-indazole-6-carboxamide] | > 10000 nM
CC(C)n1nc(-c2cccc(C3(O)CCC3)c2)c2c1C[C@H](C(=O)NC1(C)CC(F)(F)C1)CC2 [Example 103, (R)-N-(3,3-difluoro-1-methylcyclobutyl)-3-(3-(1-hydroxycyclobutyl)phenyl)-1-isopropyl-4,5,6,7-tetrahydro-1H-indazole-6-carboxamide] | > 10000 nM
CC(C)n1nc(-c2cncc(OC(F)(F)C(F)F)c2)c2c1C[C@H](C(=O)N[C@@]1(C)CCS(=O)(=O)C1)CC2 [Example 105, (R)-1-isopropyl-N-((S)-3-methyl-1,1-dioxidotetrahydrothiophen-3-yl)-3-(5-(1,1,2,2-tetrafluoroethoxy)pyridin-3-yl)-4,5,6,7-tetrahydro-1H-indazole-6-carboxamide] | 118 nM
